Test results from article PMC12615518, “Discovery of CRBN-recruiting PROTAC degraders of the METTL3-METTL14 complex” (Medicinal Chemistry Research, 2025).
Read-outs that look alike come from different tables or passages of the source.

Tests used:
[1] = test system: METTL3; design: method as in PMID 32159918; conditions: read-out: IC50 METTL3 activity, reader-based HTRF assay; cited from earlier work
[2] = molecular target: T1, METTL14 (Homo sapiens, UniProt Q9HCE5); assay: Immunoblotting (Western blot) degradation of METTL14 in MV4-11 cells; type: cell-based; conditions: MV4-11 cells, 1 µM, 24 h, Fig. 4A right
T1 construct: Following treatment, total cellular proteins were extracted using RIPA buffer; endogenous in cells; host or cells: MV4-11 (MV4.11) human AML cells, ATCC
Experimental: (§1) All cell lines were maintained under standard conditions in a humidified atmosphere at 37 °C with 5% CO₂.
(§2) Western Blot Analysis: Following treatment, total cellular proteins were extracted using RIPA buffer (Auragene, Changsha, China). […] After washing, membranes were incubated with horseradish peroxidase (HRP)-conjugated secondary antibodies (anti-rabbit or anti-mouse IgG; 1:5000) for 2 hours at room temperature. Protein bands were visualized using an enhanced chemiluminescence (ECL) detection kit (Amersham Pharmacia), following the manufacturer's protocol. Band intensities were quantified using ImageJ software and normalized to ACTIN as a loading control. Data was analyzed using GraphPad Prism 9.

[3] = test system: METTL3; design: method as in PMID 34431664; conditions: read-out: IC50 METTL3 inhibition, enzyme-based assays; cited from earlier work
[4] = molecular target: METTL3 (Homo sapiens, UniProt Q86U44); assay: Immunoblotting (Western blot) degradation of METTL3 in MV4-11 cells; type: cell-based; design: Following treatment, total cellular proteins were extracted using RIPA buffer; endogenous in cells; host or cells: MV4-11 (MV4.11) human AML cells, ATCC; conditions: MV4-11 cells, 1 µM, 24 h, Fig. 4A right
Experimental: as §1, §2

[5] = test system: METTL3/14; design: method as in PMID 33902106; conditions: read-out: IC50 METTL3/14 catalytic activity inhibition; cited from earlier work
[6] = molecular target: METTL3/14; design: method as in PMID 33902106; conditions: read-out: METTL3/14 binding affinity (Kd); cited from earlier work
[7] = test system: human AML patient-derived xenografts (PDX) models; design: method as in PMID 33902106; conditions: cited from earlier work
[8] = test system: primary mouse MLL-AF9/Flt3^Itd/+ model; design: method as in PMID 33902106; conditions: cited from earlier work

Sequence of METTL3 (Homo sapiens, UniProt Q86U44) (Q86U44 2-580 limits assumed): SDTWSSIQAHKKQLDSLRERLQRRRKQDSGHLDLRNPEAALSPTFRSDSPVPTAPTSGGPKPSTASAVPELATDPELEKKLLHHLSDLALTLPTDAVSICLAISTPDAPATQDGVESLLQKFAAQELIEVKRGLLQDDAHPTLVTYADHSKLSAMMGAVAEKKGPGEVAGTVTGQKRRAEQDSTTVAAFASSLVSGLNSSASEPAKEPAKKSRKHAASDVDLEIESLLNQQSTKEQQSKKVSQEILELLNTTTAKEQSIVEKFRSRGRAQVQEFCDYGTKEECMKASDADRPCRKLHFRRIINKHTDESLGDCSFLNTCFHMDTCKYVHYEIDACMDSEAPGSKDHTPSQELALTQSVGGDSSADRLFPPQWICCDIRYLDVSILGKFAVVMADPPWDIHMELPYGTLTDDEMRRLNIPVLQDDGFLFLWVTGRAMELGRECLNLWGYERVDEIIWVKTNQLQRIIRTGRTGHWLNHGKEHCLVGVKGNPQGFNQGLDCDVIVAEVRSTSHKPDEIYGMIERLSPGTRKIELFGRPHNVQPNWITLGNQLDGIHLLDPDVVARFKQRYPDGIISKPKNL
Sequence of METTL3 (Homo sapiens, UniProt Q86U44) (Q9HCE5 whole entry partner): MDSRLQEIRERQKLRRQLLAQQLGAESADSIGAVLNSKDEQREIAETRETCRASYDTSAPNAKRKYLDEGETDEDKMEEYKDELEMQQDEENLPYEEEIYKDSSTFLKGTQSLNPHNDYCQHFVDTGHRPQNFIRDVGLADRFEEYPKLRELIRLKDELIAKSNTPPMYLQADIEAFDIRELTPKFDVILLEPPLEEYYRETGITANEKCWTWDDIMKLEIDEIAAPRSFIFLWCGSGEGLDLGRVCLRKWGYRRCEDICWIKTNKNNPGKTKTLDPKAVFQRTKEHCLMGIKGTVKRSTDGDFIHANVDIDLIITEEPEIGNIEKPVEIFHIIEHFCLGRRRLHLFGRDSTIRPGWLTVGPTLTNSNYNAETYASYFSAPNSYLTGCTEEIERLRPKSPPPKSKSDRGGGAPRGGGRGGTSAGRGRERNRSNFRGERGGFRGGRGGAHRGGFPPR
T1 sequence (Q9HCE5 whole entry): as the sequence (Q9HCE5 whole entry partner) above
T1 sequence (Q86U44 2-580 partner): as the sequence (Q86U44 2-580 limits assumed) above

## Nc1ncnc2c1ncn2[C@@H]1O[C@H](C(=O)NCCCCN2CCCC2)[C@@H](O)[C@H]1O [Compound 1]
[1]
  IC50: 8.7 µM

## CNc1cc(N2CCC3(CC2)CN(c2cc(F)c(CN4CCC(C)(C)CC4)cc2F)CC(=O)N3)ncn1 [UZH2, reference compound]
[2]
  degradation of METTL14 at 1 µM (in words): not degraded
[3]
  IC50: 0.005 µM
[4]
  degradation of METTL3 at 1 µM (in words): not degraded

## STM2457
[5]
  IC50: 0.0169 µM
[6]
  Kd: 0.0014 µM
[7]
  anti-leukemic effect: anti-leukemic effect
[8]
  anti-leukemic effect: anti-leukemic effect
